Data published in the NIST ThermoML archive (doi:10.1021/je100228t).

Conditions: for surface tension liquid-gas: Maximal bubble pressure; for mass density: 101.33 kPa, Liquid

CCn1cc[n+](C)c1.N#C[B-](C#N)(C#N)C#N [1-ethyl-3-methylimidazolium tetracyanoborate]
Conditions	mass density [kg/m3]	surface tension liquid-gas [mN/m]
283.15 K	1048.37	49.4
288.15 K	1044.37	48.9
293.15 K	1040.38	48.2
298.15 K	1036.41	47.8
303.15 K	1032.46	47.6
308.15 K	1028.55	47.1
313.15 K	1024.66	46.8
318.15 K	1020.78	46.4
323.15 K	1016.95	46.2
328.15 K	1013.11	45.5
333.15 K	1009.32	45
338.15 K	1005.54	44.8
